Data published in patent publication US9765056B2, “Indole and pyrrole compounds, a process for their preparation and pharmaceutical compositions containing them” (LES LABORATOIRES SERVIER, priority 2013, dated 2017).
Structures can show the parent of a compound that is named as a salt.

Tests used:
[1] = tested on: RS4;11 leukaemia tumour line; assay: In vitro cytotoxicity, Microculture Tetrazolium Assay (MTT); format: cell-based; details: Homo sapiens; RS4;11 cells, 48 hours exposure
Description: The cytotoxicity studies were carried out on the RS4;11 leukaemia tumour line.
The cells are distributed onto microplates and exposed to the test compounds for 48 hours. The cell viability is then quantified by a colorimetric assay, the Microculture Tetrazolium Assay (Cancer Res., 1987, 47, 939-942).

Bcl-2 protein = Bcl-2 protein (histag-Bcl-2, UniProtKB P10415) (Homo sapiens (Human), UniProt P10415); assay: Inhibition of Bcl-2 by the fluorescence polarisation technique; format: binding; details: fluorescence polarisation test; method A, or method B where underlined (underlining not visible); read-out: IC50 (nM) Bcl-2 FP
Sequence of Bcl-2 protein (P10415 whole entry): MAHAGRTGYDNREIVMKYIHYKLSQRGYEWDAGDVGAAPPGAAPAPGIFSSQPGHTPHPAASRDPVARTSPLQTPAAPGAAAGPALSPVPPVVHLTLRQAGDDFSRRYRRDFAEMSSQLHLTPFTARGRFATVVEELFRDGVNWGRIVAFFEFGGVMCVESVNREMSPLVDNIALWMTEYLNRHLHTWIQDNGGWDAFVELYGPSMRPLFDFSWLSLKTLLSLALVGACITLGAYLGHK
From the text: Inhibition of Bcl-2 by the fluorescence polarisation technique

| Compound | IC50 [1] | IC50 (Bcl-2 protein) |
| --- | --- | --- |
| CN1CCN(C[C@@H]2Cc3ccccc3CN2C(=O)c2cc3c(cc2-n2cc(C(=O)N(c4ccccc4)c4ccc(O)cc4)c4ccccc42)OC(F)(F)O3)CC1 [Example 182, 1-{2,2-Difluoro-6-[(3S)-3-[(4-methylpiperazin-1-yl)methyl]-1,2,3,4-tetrahydroisoquinoline-2-carbonyl]-2H-1,3-benzodioxol-5-yl}-N-(4-hydroxyphenyl)-N-phenyl-1H-indole-3-carboxamide] | 1850 nM | 111 nM |
| COc1cc(-n2cc(C(=O)N(c3ccc(O)cc3)C3CCCCC3)c3ccccc32)c(C(=O)N2Cc3ccccc3C[C@H]2CN2CCN(C)CC2)cc1O [Example 204, N-Cyclohexyl-1-{4-hydroxy-5-methoxy-2-[(3S)-3-[(4-methylpiperazin-1-yl)methyl]-1,2,3,4-tetrahydroisoquinoline-2-carbonyl]phenyl}-N-(4-hydroxyphenyl)-1H-indole-3-carboxamide dihydrochloride] | 780 nM | 4.7 nM |
| CN1CCN(C[C@@H]2Cc3ccccc3CN2C(=O)c2ccc(Cl)cc2-n2cc(C(=O)N(c3ccc(O)cc3)c3ccc4c(ccn4C)c3)c3ccccc32)CC1 [Example 93, 1-(5-Chloro-2-{[(3S)-3-[(4-methylpiperazin-1-yl)methyl]-3,4-dihydroisoquinolin-2(1H)-yl]carbonyl}phenyl)-N-(4-hydroxyphenyl)-N-(1-methyl-1H-indol-5-yl)-1H-indole-3-carboxamide] | 75.4 nM | 3.3 nM |
| CC(C)n1ccc2cc(N(C(=O)c3cn(-c4cc5c(cc4C(=O)N4Cc6ccccc6C[C@H]4CN4CCN(C)CC4)OCO5)c4ccccc34)c3ccc(O)cc3)ccc21 [Example 100, N-(4-Hydroxyphenyl)-1-(6-{[(3S)-3-[(4-methylpiperazin-1-yl)methyl]-3,4-dihydroisoquinolin-2(1H)-yl]carbonyl}-1,3-benzodioxol-5-yl)-N-[1-(propan-2-yl)-1H-indol-5-yl]-1H-indole-3-carboxamide] | 43.4 nM | 6.9 nM |
| Cc1cc(C(=O)N(c2ccc(O)cc2)c2ccc3c(ccn3CCN3CCOCC3)c2)cn1-c1cc2c(cc1C(=O)N1Cc3ccccc3C[C@H]1C)OCO2 [Example 116, N-(4-Hydroxyphenyl)-5-methyl-1-(6-{[(3R)-3-methyl-3,4-dihydroisoquinolin-2(1H)-yl]carbonyl}-1,3-benzodioxol-5-yl)-N-{1-[2-(morpholin-4-yl)ethyl]-1H-indol-5-yl}-1H-pyrrole-3-carboxamide hydrochloride] | 131 nM | 12.1 nM |
| CN1CCN(C[C@@H]2Cc3ccccc3CN2C(=O)c2ccc(Cl)cc2-n2cc(C(=O)N(c3ccc(O)cc3)c3ccc4[nH]ccc4c3)c3ccccc32)CC1 [Example 72, 1-(5-Chloro-2-{[(3S)-3-[(4-methylpiperazin-1-yl)methyl]-3,4-dihydroisoquinolin-2(1H)-yl]carbonyl}phenyl)-N-(4-hydroxyphenyl)-N-(1H-indol-5-yl)-1H-indole-3-carboxamide] | 43.4 nM | 4.5 nM |
| Cc1cc(C(=O)N(c2ccc(O)cc2)c2ccc3c(c2)CCN3C)cn1-c1cc2c(cc1C(=O)N1Cc3ccccc3C[C@H]1C)OCO2 [Example 115, N-(4-Hydroxyphenyl)-5-methyl-N-(1-methyl-2,3-dihydro-1H-indol-5-yl)-1-(6-{[(3R)-3-methyl-3,4-dihydroisoquinolin-2(1H)-yl]carbonyl}-1,3-benzodioxol-5-yl)-1H-pyrrole-3-carboxamide hydrochloride] | 272 nM | 14.5 nM |
| Cc1cc(C(=O)N(c2ccc(O)cc2)c2ccc(F)cc2)cn1-c1cc(Br)ccc1C(=O)N1Cc2ccccc2C[C@H]1CN1CCN(C)CC1 [Example 50, 1-(5-Bromo-2-{[(3S)-3-[(4-methylpiperazin-1-yl)methyl]-3,4-dihydroisoquinolin-2(1H)-yl]carbonyl}phenyl)-N-(4-fluorophenyl)-N-(4-hydroxyphenyl)-5-methyl-1H-pyrrole-3-carboxamide] | 301 nM | 7.4 nM |
| Cc1cc(C(=O)N(c2ccc(O)cc2)c2ccc(F)cc2)cn1-c1cc(Cl)ccc1C(=O)N1Cc2ccccc2C[C@H]1CN1CCN(C)CC1 [Example 66, 1-(5-Chloro-2-{[(3S)-3-[(4-methylpiperazin-1-yl)methyl]-3,4-dihydroisoquinolin-2(1H)-yl]carbonyl}phenyl)-N-(4-fluorophenyl)-N-(4-hydroxyphenyl)-5-methyl-1H-pyrrole-3-carboxamide] | 148 nM | 6.6 nM |
| CN1CCN(C[C@@H]2Cc3ccccc3CN2C(=O)c2cc3c(cc2-n2cc(C(=O)N(c4ccc(O)cc4)c4ccc5c(ccn5C)c4)c4ccccc42)OCO3)CC1 [Example 45, N-(4-Hydroxyphenyl)-N-(1-methyl-1H-indol-5-yl)-1-(6-{[(3S)-3-[(4-methylpiperazin-1-yl)methyl]-3,4-dihydroisoquinolin-2(1H)-yl]carbonyl}-1,3-benzodioxol-5-yl)-1H-indole-3-carboxamide] | 36.5 nM | 6.7 nM |
| CN1CCN(C[C@@H]2Cc3ccccc3CN2C(=O)c2ccc(Cl)cc2-n2cc(C(=O)N(c3ccccc3)c3ccccc3)c3ccccc32)CC1 [Example 178, 1-{5-Chloro-2-[(3S)-3-[(4-methylpiperazin-1-yl)methyl]-1,2,3,4-tetrahydroisoquinoline-2-carbonyl]phenyl}-N,N-diphenyl-1H-indole-3-carboxamide dihydrochloride] | 812 nM | 17.5 nM |
| CN(C)C[C@@H]1Cc2ccccc2CN1C(=O)c1cc2c(cc1-n1cc(C(=O)N(c3ccccc3)c3ccc(O)cc3)c3ccccc31)OCO2 [Example 180, 1-{6-[(3S)-3-[(Dimethylamino)methyl]-1,2,3,4-tetrahydroisoquinoline-2-carbonyl]-2H-1,3-benzodioxol-5-yl}-N-(4-hydroxyphenyl)-N-phenyl-1H-indole-3-carboxamide hydrochloride] | 210 nM | 11 nM |
| Cc1cc(C(=O)N(c2ccccc2)c2ccccc2)cn1-c1cc(O)ccc1C(=O)N1Cc2ccccc2C[C@H]1CN [Example 6, 1-(2-{[(3S)-3-(Aminomethyl)-3,4-dihydroisoquinolin-2(1H)-yl]-carbonyl}-5-hydroxyphenyl)-5-methyl-N,N-diphenyl-1H-pyrrole-3-carboxamide] | 915 nM | 50.5 nM |
| Cc1cc(C(=O)N(c2ccccc2)c2ccc(O)cc2)cn1-c1cc(Cl)c(F)cc1C(=O)N1Cc2ccccc2C[C@H]1CN1CCN(C)CC1 [Example 28, 1-(5-Chloro-4-fluoro-2-{[(3S)-3-[(4-methylpiperazin-1-yl)methyl]-3,4-dihydroisoquinolin-2(1H)-yl]carbonyl}phenyl)-N-(4-hydroxyphenyl)-5-methyl-N-phenyl-1H-pyrrole-3-carboxamide] | 378 nM | 8 nM |
| CN1CCN(C[C@@H]2Cc3ccccc3CN2C(=O)c2cc3c(cc2-n2cc(C(=O)N(c4ccc(O)cc4)c4ccc5occc5c4)c4ccccc42)OCO3)CC1 [Example 44, N-(1-Benzofuran-5-yl)-N-(4-hydroxyphenyl)-1-(6-{[(3S)-3-[(4-methylpiperazin-1-yl)methyl]-3,4-dihydroisoquinolin-2(1H)-yl]carbonyl}-1,3-benzodioxol-5-yl)-1H-indole-3-carboxamide] | 164 nM | 6.8 nM |
| Cc1cc(C(=O)N(c2ccccc2)c2ccc(O)cc2)cn1-c1cc2c(cc1C(=O)N1Cc3ccccc3C[C@H]1CN1CCOCC1)CCC2 [Example 107, N-(4-Hydroxyphenyl)-5-methyl-1-(6-{[(3S)-3-(morpholin-4-ylmethyl)-3,4-dihydroisoquinolin-2(1H)-yl]carbonyl}-2,3-dihydro-1H-inden-5-yl)-N-phenyl-1H-pyrrole-3-carboxamide hydrochloride] | 150 nM | 44 nM |
| Cc1ccc(N(C(=O)c2cn(-c3cc4c(cc3C(=O)N3Cc5ccccc5C[C@H]3CN3CCN(C)CC3)OCO4)c3ccccc23)c2ccc(O)cc2)cc1F [Example 52, N-(3-Fluoro-4-methylphenyl)-N-(4-hydroxyphenyl)-1-(6-{[(3S)-3-[(4-methylpiperazin-1-yl)methyl]-3,4-dihydroisoquinolin-2(1H)-yl]carbonyl}-1,3-benzodioxol-5-yl)-1H-indole-3-carboxamide] | 77.3 nM | 5.4 nM |
| Cc1cc(C(=O)N(c2ccccc2)c2ccc(O)cc2)cn1-c1cc(F)ccc1C(=O)N1Cc2ccccc2C[C@H]1CN1CCN(C)CC1 [Example 21, 1-(5-fluoro-2-{[(3S)-3-[(4-methylpiperazin-1-yl)methyl]-3,4-dihydroisoquinolin-2(1H)-yl]carbonyl}phenyl)-N-(4-hydroxyphenyl)-5-methyl-N-phenyl-1H-pyrrole-3-carboxamide] | 256 nM | 24.6 nM |
| Cc1cc(C(=O)N(c2ccc(O)cc2)c2ccc3c(ccn3C)c2)cn1-c1cc2c(cc1C(=O)N1Cc3ccccc3C[C@H]1CN1CCCC1)OCO2 [Example 105, N-(4-Hydroxyphenyl)-5-methyl-N-(1-methyl-1H-indol-5-yl)-1-(6-{[(3S)-3-(pyrrolidin-1-ylmethyl)-3,4-dihydroisoquinolin-2(1H)-yl]carbonyl}-1,3-benzodioxol-5-yl)-1H-pyrrole-3-carboxamide hydrochloride] | 202 nM | 13.6 nM |
| Cc1cc(C(=O)N(c2ccccc2)c2ccc(O)cc2)cn1-c1ccc(OC(F)(F)F)cc1C(=O)N1Cc2ccccc2C[C@H]1CN1CCN(C)CC1 [Example 19, N-(4-Hydroxyphenyl)-5-methyl-1-[2-{[(3S)-3-[(4-methylpiperazin-1-yl)methyl]-3,4-dihydroisoquinolin-2(1H)-yl]carbonyl}-4-(trifluoromethoxy)phenyl]-N-phenyl-1H-pyrrole-3-carboxamide] | 2360 nM | 245 nM |
